Patent publication US20220073536A1 (Rigel Pharmaceuticals, Inc., priority 2003, published 2022)
Where a name gives a salt, the structure may show the parent alone.

Assays:
[1] = test system: cultured human mast cells (CHMC); test: CHMC low cell density IgE activation: tryptase assay; assay type: cell-based; details: low cell density CHMC, IgE activation, tryptase readout
Outline: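 Anti-IgE-driven degranulation of cultured human mast cells at low density, 1000–1500 cells/well, was induced over 30 min at 37 °C. It was scored by supernatant tryptase activity on a fluorogenic substrate.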

[2] = test system: cultured human mast cells (CHMC); test: CHMC low cell density ionomycin activation: tryptase assay; assay type: cell-based; details: low cell density CHMC, tryptase readout, 3 pt, read-out: LD Tryptase, CHMC, Iono, 3 pt
[3] = Homo sapiens, Mast cell, 3 pt, read-out: LD Tryptase, CHMC, IgE, 3 pt
[4] = Homo sapiens, Mast cell, 8 pt, read-out: LD Tryptase, CHMC, IgE, 8 pt
[5] = 3 pt, read-out: LD Tryptase, CHMC, IgE, 3 pt
[6] = 8 pt, read-out: LD Tryptase, CHMC, IgE, 8 pt

| SMILES | IC50 [1, 3] [µM] | IC50 [1, 4] [µM] | IC50 ([2]; Homo sapiens, Mast cell) [µM] | IC50 [1, 5] [µM] | IC50 [1, 6] [µM] | IC50 [2] [µM] |
| --- | --- | --- | --- | --- | --- | --- |
| CN(c1ccc2c(c1)NC(=O)C(C)(C)O2)c1nc(Nc2cccc(-c3ncco3)c2)ncc1F [Compound 1019, N4-(2,2-Dimethyl-3-oxo-4H-benz[1,4]oxazin-6-yl)-5-fluoro-N4-methyl-N2-[3-(oxazol-2-yl)phenyl]-2,4-pyrimidinediamine] | < 10 | < 10 | > 10 | – | – | – |
| CC1(C)Oc2ccc(Nc3nc(Nc4ccc(-c5cnco5)cc4)ncc3F)cc2NC1=O [Compound 1020, N4-(2,2-Dimethyl-3-oxo-4H-benz[1,4]oxazin-6-yl)-5-fluoro-N2-[4-(oxazol-5-yl)phenyl]-2,4-pyrimidinediamine] | < 10 | < 10 | > 10 | – | – | – |
| CN1C(=O)C(C)(C)Oc2ccc(N(C)c3nc(Nc4cccc(-c5ncco5)c4)ncc3F)cc21 [Compound 1025, 5-Fluoro-N4-methyl-N2-[3-(oxazol-2-yl)phenyl]-N4-(3-oxo-2,2,4-trimethylbenz[1,4]oxazin-6-yl)-2,4-pyrimidinediamine] | < 10 | – | < 10 | – | – | – |
| CN1C(=O)C(C)(C)Oc2ccc(N(C)c3nc(Nc4ccc(-c5cnco5)cc4)ncc3F)cc21 [Compound 1026] | < 10 | – | > 10 | – | – | – |
| Cc1cc(Nc2ncc(F)c(Nc3ccc4c(n3)NC(=O)C(C)(C)O4)n2)cc(Cl)c1OC1CCCC1 [Compound 1027, N2-(3-Chloro-4-cyclopentyloxy-5-methylphenyl)-N4-(2,2-dimethyl-3-oxo-4H-5-pyrid[1,4]oxazin-6-yl)-5-fluoro-2,4-pyrimidinediamine] | – | – | – | < 10 | – | > 10 |
| CC1(C)Oc2ccc(Nc3nc(Nc4cccc(-c5ncco5)c4)ncc3F)nc2NC1=O [Compound 1028, N4-(2,2-Dimethyl-3-oxo-4H-5-pyrid[1,4]oxazin-6-yl)-5-fluoro-N2-[3-(oxazol-2-yl)phenyl]-2,4-pyrimidinediamine] | – | – | – | < 10 | < 10 | > 10 |
| CC1(C)Oc2ccc(Nc3nc(Nc4cccc(-c5cocn5)c4)ncc3F)nc2NC1=O [Compound 1029, N4-(2,2-Dimethyl-3-oxo-4H-5-pyrid[1,4]oxazin-6-yl)-5-fluoro-N2-[3-(oxazol-4-yl)phenyl]-2,4-pyrimidinediamine] | – | – | – | < 10 | < 10 | > 10 |
| CN1C(=O)C(C)(C)Oc2ccc(N(C)c3nc(Nc4cccc(-c5cocn5)c4)ncc3F)cc21 [Compound 1030] | < 10 | – | < 10 | – | – | – |
| Cc1cc(Nc2ncc(F)c(N(C)c3ccc4c(c3)N(C)C(=O)C(C)(C)O4)n2)cc(Cl)c1OC1CCCC1 [Compound 1032, N2-(3-Chloro-4-cyclopentyloxy-5-methylphenyl)-5-fluoro-N4-methyl-N4-(3-oxo-2,2,4-trimethyl-benz[1,4]oxazin-6-yl)-2,4-pyrimidinediamine] | > 10 | – | > 10 | – | – | – |
| COc1c(C)cc(Nc2ncc(F)c(Nc3ccc4c(c3)N(C)C(=O)C(C)(C)O4)n2)cc1C [Compound 1033] | < 10 | < 10 | < 10 | – | – | – |
| CCOC(=O)COc1c(C)cc(Nc2ncc(F)c(Nc3ccc4c(n3)NC(=O)C(C)(C)O4)n2)cc1C [Compound 1038, N2-(3,5-Dimethyl-4-ethoxycarbonylmethyleneoxyphenyl)-N4-(2,2-dimethyl-3-oxo-4H-5-pyrid[1,4]oxazin-6-yl)-5-fluoro-2,4-pyrimidinediamine] | – | – | – | – | < 10 | > 10 |
| Cc1cc(Nc2ncc(F)c(Nc3ccc4c(n3)NC(=O)C(C)(C)O4)n2)cc(Cl)c1OC(C)C [Compound 1040, N2-(3-Chloro-4-isopropoxy-5-methylphenyl)-N4-(2,2-dimethyl-3-oxo-4H-5-pyrid[1,4]oxazin-6-yl)-5-fluoro-2,4-pyrimidinediamine] | – | – | – | – | > 10 | < 10 |
| CNC(=O)COc1c(C)cc(Nc2ncc(F)c(Nc3ccc4c(n3)NC(=O)C(C)(C)O4)n2)cc1C [Compound 1041, N2-[3,5-Dimethyl-4-(N-methylamino)carbonylmethyleneoxyphenyl]-N4-(2,2-dimethyl-3-oxo-4H-5-pyrid[1,4]oxazin-6-yl)-5-fluoro-2,4-pyrimidinediamine] | – | – | – | < 10 | < 10 | < 10 |
| Cc1cc(Nc2ncc(F)c(Nc3ccc4c(n3)NC(=O)C(C)(C)O4)n2)cc(Cl)c1OCC(=O)NCC(O)CO (centres unmarked) [Compound 1043, N2-[3-Chloro-4-[N-(2,3-dihydroxypropyl)amino]carbonylmethyleneoxy-5-methylphenyl]-N4-(2,2-dimethyl-3-oxo-4H-5-pyrid[1,4]oxazin-6-yl)-5-fluoro-2,4-pyrimidinediamine] | – | – | – | < 10 | < 10 | > 10 |
| Cc1cc(Nc2ncc(F)c(Nc3ccc4c(n3)NC(=O)C(C)(C)O4)n2)cc(C)c1OCC(=O)NC1CCCC1 [Compound 1044, N2-[3,5-Dimethyl-4-(N-cyclopentylamino)carbonylmethyleneoxyphenyl]-N4-(2,2-dimethyl-3-oxo-4H-5-pyrid[1,4]oxazin-6-yl)-5-fluoro-2,4-pyrimidinediamine] | – | – | – | > 10 | > 10 | > 10 |
| CNC(=O)COc1cccc(Nc2ncc(F)c(Nc3ccc4c(c3)NC(=O)C(F)(F)O4)n2)c1 [Compound 1045, N4-(2,2-Difluoro-3-oxo-4H-benz[1,4]oxazin-6-yl)-5-fluoro-N2-[3-(N-methylamino)carbonylmethyleneoxyphenyl]-2,4-pyrimidinediamine Hydrogen Chloride Salt] | – | – | – | < 10 | < 10 | > 10 |
| CNC(=O)COc1cccc(Nc2ncc(F)c(Nc3ccc4c(c3)NC(=O)C(F)(F)O4)n2)c1 [Compound 1046, N4-(2,2-Difluoro-3-oxo-4H-benz[1,4]oxazin-6-yl)-5-fluoro-N2-[3-(N-methylamino)carbonylmethyleneoxyphenyl]-2,4-pyrimidinediamine Methanesulfonic Acid Salt] | – | – | – | < 10 | < 10 | > 10 |

Further lines, results first:

| IC50 [1, 3] [µM] | IC50 [1, 4] [µM] | IC50 ([2]; Homo sapiens, Mast cell) [µM] | IC50 [1, 5] [µM] | IC50 [1, 6] [µM] | IC50 [2] [µM] | SMILES |
| --- | --- | --- | --- | --- | --- | --- |
| < 10 | < 10 | > 10 | – | – | – | Cc1cc(Nc2ncc(F)c(Nc3ccc4c(c3)NC(=O)C(C)(C)O4)n2)cc(Cl)c1OC1CCCC1 [Compound 1018, N2-[3-Chloro-4-cyclopentyloxy-5-methylphenyl]-N4-(2,2-dimethyl-3-oxo-4H-benz[1,4]oxazin-6-yl)-5-fluoro-2,4-pyrimidinediamine] |
| < 10 | < 10 | < 10 | – | – | – | CN(c1ccc2c(c1)NC(=O)C(C)(C)O2)c1nc(Nc2ccc(-c3ncco3)cc2)ncc1F [Compound 1021] |
| – | – | – | < 10 | < 10 | > 10 | CNC(=O)COc1cccc(Nc2ncc(F)c(N(C)c3ccc4c(c3)NC(=O)C(C)(C)O4)n2)c1 [Compound 1022, N4-(2,2-Dimethyl-3-oxo-4H-benz[1,4]oxazin-6-yl)-5-fluoro-N4-methyl-N2-[3-(N-methylamino)carbonylmethyleneoxyphenyl]-2,4-pyrimidinediamine] |
| < 10 | < 10 | > 10 | – | – | – | CN(c1ccc2c(c1)NC(=O)C(C)(C)O2)c1nc(Nc2cccc(-c3cnco3)c2)ncc1F [Compound 1023, N4-(2,2-Dimethyl-3-oxo-4H-benz[1,4]oxazin-6-yl)-5-fluoro-N4-methyl-N2-[3-(oxazol-5-yl)phenyl]-2,4-pyrimidinediamine] |
| < 10 | – | < 10 | – | – | – | CN1C(=O)C(C)(C)Oc2ccc(N(C)c3nc(Nc4ccc(-c5ncco5)cc4)ncc3F)cc21 [Compound 1024] |
| < 10 | – | > 10 | – | – | – | COc1c(C)cc(Nc2ncc(F)c(N(C)c3ccc4c(c3)N(C)C(=O)C(C)(C)O4)n2)cc1C [Compound 1031] |
| < 10 | – | > 10 | – | – | – | Cc1cc(Nc2ncc(F)c(Nc3ccc4c(c3)N(C)C(=O)C(C)(C)O4)n2)cc(Cl)c1OC1CCCC1 [Compound 1034, N2-(3-Chloro-4-cyclopentyloxy-5-methylphenyl)-5-fluoro-N4-(3-oxo-2,2,4-trimethyl-benz[1,4]oxazin-6-yl)-2,4-pyrimidinediamine] |
| < 10 | < 10 | < 10 | – | – | – | CC1(C)Oc2ccc(Nc3nc(Nc4cccc(-c5cocn5)c4)ncc3F)cc2NC1=O [Compound 1036, N4-(2,2-Dimethyl-3-oxo-4H-benz[1,4]oxazin-6-yl)-5-fluoro-N2-[3-(oxazol-4-yl)phenyl]-2,4-pyrimidinediamine] |
| – | – | – | – | < 10 | > 10 | CNC(=O)COc1c(C)cc(Nc2ncc(F)c(Nc3ccc4c(n3)NC(=O)C(C)(C)O4)n2)cc1Cl [Compound 1037, N2-[3-Chloro-5-methyl-4-(N-methylamino)carbonylmethyleneoxyphenyl]-N4-(2,2-dimethyl-3-oxo-4H-5-pyrid[1,4]oxazin-6-yl)-5-fluoro-2,4-pyrimidinediamine] |
| – | < 10 | < 10 | – | – | – | Cc1cc(Nc2ncc(F)c(Nc3ccc4c(c3)NC(=O)C(C)(C)O4)n2)cc(Cl)c1OC(C)C [Compound 1039, N2-(3-Chloro-4-isopropoxy-5-methylphenyl)-N4-(2,2-dimethyl-3-oxo-4H-benz[1,4]oxazin-6-yl)-5-fluoro-2,4-pyrimidinediamine] |
| – | – | – | > 10 | – | > 10 | CCOC(=O)COc1c(C)cc(Nc2ncc(F)c(Nc3ccc4c(n3)NC(=O)C(C)(C)O4)n2)cc1Cl [Compound 1042, N2-(3-Chloro-4-ethoxycarbonylmethyleneoxy-5-methylphenyl)-N4-(2,2-dimethyl-3-oxo-4H-5-pyrid[1,4]oxazin-6-yl)-5-fluoro-2,4-pyrimidinediamine] |
